Test results reported in patent publication US20250179033A1 (priority 2021, published 2025).
Values joined by “and” are separate entries in the source; they are usually repeats but may differ in a detail not shown here. Identical values can stand only once. Like-named read-outs stand apart in the source and are kept apart here.

Legend:
THP-1 = assay: 99% toxic dose (TD99) in THP-1; format: cell-based
[1] = In vivo pharmacokinetics, plasma and brain; set-up: species or system Balb/C male mice; conditions: 250 mg/kg intragastric; for AUC(0-inf) / MRT / half-life / AUC(0-t) / Cmax: male, Balb/C, mouse, po; for AUC(0-inf) / MRT / half-life / AUC(0-t) / Cmax / CL / Kel / Vd: plasma; for AUC(0-t): read-out: AUC0-7
Experimental: The pharmacokinetics of compound 1 was studied in white Balb/C male mice. 22 animals with an average body weight of 20 g were selected for the study. Before the study, the animals were kept on a standard vivarium ration with dry pelleted feed. All the test animals had free access to water but were deprived of food for 1 hour before administration of the compound. This regimen was continued for another hour after the administration.
Compound 1 in a dose of 250 mg/kg of body weight was administered as 0.5 ml of prepared suspension in 0.5% CMC by intragastric intubation. The animals were euthanized by decapitation for blood and brain sampling. Blood and brain samples (3 animals per time point) were taken at 0.5, 1, 2, 3, 5 and 7 hours after administration for pharmacokinetic evaluation. Blood was collected in heparinized tubes and centrifuged at 3500 RPM. Plasma was separated from formed elements and immediately frozen at −20° C. in freezer. This storage continued before transferring plasma for analysis. Serum from 6 untreated animals was used as a control and for equipment calibration with the compound. Mice brain was immediately frozen at −120° C.
Plasma separation: Samples of experimental blood ([…]) from animals were centrifuged at 3500 rpm for 15 minutes.
Sample preparation: A mixture of 60 μL of plasma and 180 μL of acetonitrile (MeCN) by intensive shaking (Vortex) for 30 sec. Centrifugation 32000 g for 4 min. After centrifugation the 150 μL of organic layer was injected into the HPLC column.
Equipment: HPLC System Agilent 1290 Infinity, MS spectrometer Agilent 6460 (Agilent Technologies, Santa Clara, California, United States of America)
HPLC conditions: Column: Agilent Eclipse Plus C18 RRHD 1.8 um 2.1×50 mm (Agilent Technologies, Santa Clara, California, United States of America), Temperature: 40° C., Flow speed: 0.4 mL/min
Eluent: A: water, 0.1% formic acid; B: 85% acetonitrile in water, 0.1% formic acid
Gradient: 0.0-3.0 min: 60% B (separation), 3.0-4.0 min: 60->97% B (washing and regeneration), 4.0-6.0 min: 97% B, 6.0-6.1 min: 97->60% B, 6.1-9.0 min: 60% B, Volume of sample: 2 μL. Retention time in above conditions: 2.40 min.
MS conditions: ESI(+), MRM 400->209, Dwell time: 200 ms, Fragmentor: 135 V, Collision energy: 12, Cell Accelerator: 3 V, Gas Temp: 350° C., Gas Flow: 12 I/min, Nebulizer: 35 psi, Sheath gas Temp: 300° C., Capillary Voltage: 3500 V, Nozzle Voltage: 450 V; Diverter valve: 0.0-1.3 min: to waste; 1.3-3.0 min: to MS, data acquisition, 3.0-7.0 min: to MS, idle, 7.0- . . . min: to waste
Brain separation: Samples of experimental brain from animals were dispersed at 25K turn/min for 3 minutes and 100 mg of each sample was balanced to a sterile container.
Sample preparation: A mixture of 100 mg of brain and 100 μL of water was treated by zirconium balls in a homogonisator MagNA Lyser for 30 sec. 300 μL of MeCN was added and intensive shaking (Vortex) for 30 sec was performed. Centrifugation 32000 g for 4 min.
Equipment: HPLC System Agilent 1290 Infinity, MS spectrometer Agilent 6460 (Agilent Technologies, Santa Clara, California, United States of America).
HPLC conditions: Column: Agilent Eclipse Plus C18 RRHD 1.8 um 2.1×50 mm (Agilent Technologies, Santa Clara, California, United States of America), Temperature: 40° C., Flow speed: 0.4 mL/min.
Eluent: A: water, 0.1% formic acid; B: 85% acetonitrile in water, 0.1% formic acid.
Gradient: 0.0-3.0 min: 60% B (separation), 3.0-4.0 min: 60->97% B (washing and regeneration), 4.0-6.0 min: 97% B, 6.0-6.1 min: 97->60% B, 6.1-9.0 min: 60% B, Volume of sample: 2 μL.
Retention time in above conditions: 2.40 min […]

Huh-7D12 = assay: 99% toxic dose (TD99) in Huh-7D12; format: cell-based

Q: With `Nc1nc(Nc2ccc(Cl)cc2)nn1S(=O)(=O)c1ccc2ccccc2c1` [Compound 1, N3-(4-chlorophenyl)-1-(2-naphthylsulfonyl)-1,2,4-triazole-3,5-diamine] as the molecule, how does the “99% toxic dose (TD99)” value (THP-1) read?
A: Its value is > 11 μg/ml and > 27.5 μM.

Q: What about the AUC(0-inf) ([1]; 250 mg/kg, mean of mice groups) of the same molecule?
A: Its AUC(0-inf) is 6220 ng·h/mL.

Q: What about the MRT ([1]; 250 mg/kg, mean of mice groups) of the same molecule?
A: Its MRT is 5.9 h.

Q: What about the half-life ([1]; 250 mg/kg, mean of mice groups) of the same molecule?
A: Its half-life is 246 min.

Q: And the AUC(0-t) ([1]; 250 mg/kg, mean of mice groups)?
A: The AUC(0-t) was 4050 ng·h/mL.

Q: What about the AUC(0-inf) ([1]; 250 mg/kg, mice group 1) of the same molecule?
A: The AUC(0-inf) was 6230 ng·h/mL.

Q: What about the Cmax ([1]; 250 mg/kg, mice group 1) of the same molecule?
A: The Cmax was 1050 ng/mL.

Q: And the MRT ([1]; 250 mg/kg, mice group 1)?
A: Its MRT is 7.4 h.

Q: And the half-life ([1]; 250 mg/kg, mice group 1)?
A: The half-life was 300 min.

Q: And the AUC(0-t) ([1]; 250 mg/kg, mice group 1)?
A: The AUC(0-t) was 3710 ng·h/mL.

Q: What about the AUC(0-inf) ([1]; 250 mg/kg, mice group 2) of the same molecule?
A: Its AUC(0-inf) is 6890 ng·h/mL.

Q: And the Cmax ([1]; 250 mg/kg, mice group 2)?
A: Its Cmax is 1170 ng/mL.

Q: What about the MRT ([1]; 250 mg/kg, mice group 2) of the same molecule?
A: Its MRT is 6.8 h.

Q: What about the half-life ([1]; 250 mg/kg, mice group 2) of the same molecule?
A: The half-life was 300 min.

Q: And the AUC(0-inf) ([1]; 250 mg/kg, mice group 3)?
A: Its AUC(0-inf) is 5550 ng·h/mL.

Q: What about the Cmax ([1]; 250 mg/kg, mice group 3) of the same molecule?
A: Its Cmax is 1350 ng/mL.

Q: What about the MRT ([1]; 250 mg/kg, mice group 3) of the same molecule?
A: Its MRT is 3.6 h.

Q: And the half-life ([1]; 250 mg/kg, mice group 3)?
A: The half-life was 144 min.

Q: What about the AUC(0-t) ([1]; 250 mg/kg, mice group 3) of the same molecule?
A: The AUC(0-t) was 4080 ng·h/mL.

Q: And the “concentrations of the compound in brain” value ([1]; mice, preliminary, 250 mg/kg)?
A: Its value is 1-5 μg/ml and 2.5-12.5 μM.

Q: What about the CL ([1]; mean of mice groups) of the same molecule?
A: Its CL is 0.809 L/h.

Q: What about the Kel ([1]; mean of mice groups) of the same molecule?
A: The Kel was 0.1872 h⁻¹.

Q: And the Vd ([1]; mean of mice groups)?
A: The Vd was 4.8 L.

Q: What about the CL ([1]; mice group 1) of the same molecule?
A: Its CL is 0.803 L/h.

Q: What about the Kel ([1]; mice group 1) of the same molecule?
A: The Kel was 0.1382 h⁻¹.

Q: What about the Vd ([1]; mice group 1) of the same molecule?
A: The Vd was 5.8 L.

Q: What about the CL ([1]; mice group 2) of the same molecule?
A: The CL was 0.725 L/h.

Q: And the Kel ([1]; mice group 2)?
A: Its Kel is 0.1381 h⁻¹.

Q: What about the Vd ([1]; mice group 2) of the same molecule?
A: Its Vd is 5.3 L.

Q: And the CL ([1]; mice group 3)?
A: The CL was 0.901 L/h.

Q: What about the Kel ([1]; mice group 3) of the same molecule?
A: Its Kel is 0.2852 h⁻¹.

Q: And the Vd ([1]; mice group 3)?
A: The Vd was 3.2 L.

Q: And the “99% toxic dose (TD99)” value (Huh-7D12)?
A: The value was > 11 μg/ml and > 27.5 μM.
